The data set deals with PC9. Briefly: cell count fold change with erlotinib, miRNA mimic vs non-targeting control (log2 ratio); higher = more drug-tolerant survivors than NTC. The settings on record: erlotinib 1 µM; 72 h drug + 72 h drug-free recovery; perturbation: miRNA mimic.

Take AGGUUGGGAUCGGUUGCAAUGCU: the “cell count fold change with erlotinib” value is -0.41.

Regarding AAGUGUGCAGGGCACUGGU, the “cell count fold change with erlotinib” value was -3.4.

Take UUGCAUAUGUAGGAUGUCCCAU: the “cell count fold change with erlotinib” value was -1.06.

With UGGAUUUCUUUGUGAAUCACCA, the “cell count fold change with erlotinib” value was -4.07.

For the sequence AAGGAGCUUACAAUCUAGCUGGG, the “cell count fold change with erlotinib” value was -0.343.

With UGAGGGGCAGAGAGCGAGACUUU, the “cell count fold change with erlotinib” value is -0.476.

For ACCCUAUCAAUAUUGUCUCUGC, the “cell count fold change with erlotinib” value was -3.19.

Turning to UUUGUUCGUUCGGCUCGCGUGA, the “cell count fold change with erlotinib” value is -4.05.

Turning to GUAGAUUCUCCUUCUAUGAGUA, the “cell count fold change with erlotinib” value was -1.33.

UUGUACAUGGUAGGCUUUCAUU: the “cell count fold change with erlotinib” value was -3.02.

In the case of UGAGAACCACGUCUGCUCUGAG, the “cell count fold change with erlotinib” value was -1.74.

For the sequence GCAUGGGUGGUUCAGUGG, the “cell count fold change with erlotinib” value was found to be 0.259.

Turning to AGCAGCAUUGUACAGGGCUAUCA, the “cell count fold change with erlotinib” value is -0.458.

Take GAAAGCGCUUCCCUUUGCUGGA: the “cell count fold change with erlotinib” value is -0.859.

Consider UGUCUUGCAGGCCGUCAUGCA, for which the “cell count fold change with erlotinib” value is -4.12.

As to UGGUGCGGAGAGGGCCCACAGUG, the “cell count fold change with erlotinib” value was -1.34.

As for AGGGCUUAGCUGCUUGUGAGCA, the “cell count fold change with erlotinib” value was -3.74.

Regarding AAGCCCUUACCCCAAAAAGCAU, the “cell count fold change with erlotinib” value was -1.75.

As for UGGAGGAGAAGGAAGGUGAUG, the “cell count fold change with erlotinib” value was 0.943.

As to UAAGUGCUUCCAUGUUUCAGUGG, the “cell count fold change with erlotinib” value is -0.141.

For UAAGUGCUUCCAUGUUUUGGUGA, the “cell count fold change with erlotinib” value is -1.35.

For the sequence AGUGAAUGAUGGGUUCUGACC, the “cell count fold change with erlotinib” value was -3.04.

GAGUGCCUUCUUUUGGAGCGUU: the “cell count fold change with erlotinib” value was -4.05.

Turning to CAGUGCAAUGAUGAAAGGGCAU, the “cell count fold change with erlotinib” value was -2.17.

For UUUUGCACCUUUUGGAGUGAA, the “cell count fold change with erlotinib” value was -3.02.

As for GUGGGUACGGCCCAGUGGGGGG, the “cell count fold change with erlotinib” value stood at 0.186.

On to ACUGCAUUAUGAGCACUUAAAG, for which the “cell count fold change with erlotinib” value was -0.728.

Take UGCUUCCUUUCAGAGGGU: the “cell count fold change with erlotinib” value was -3.13.

On to AGGAUGAGCAAAGAAAGUAGAUU, for which the “cell count fold change with erlotinib” value was -2.25.

Regarding UGCGGGGCUAGGGCUAACAGCA, the “cell count fold change with erlotinib” value is 0.647.

For AGGACCUGCGGGACAAGAUUCUU, the “cell count fold change with erlotinib” value was 0.369.

In the case of CAAAGCGCUCCCCUUUAGAGGU, the “cell count fold change with erlotinib” value is -0.185.

Consider AGACCAUGGGUUCUCAUUGU, for which the “cell count fold change with erlotinib” value was -1.65.

For the sequence UACCCAGAGCAUGCAGUGUGAA, the “cell count fold change with erlotinib” value is -2.53.

For the sequence UACUUGGAAAGGCAUCAGUUG, the “cell count fold change with erlotinib” value is -0.495.

For the sequence ACUGUAGUAUGGGCACUUCCAG, the “cell count fold change with erlotinib” value was -1.17.

Consider CUACAAAGGGAAGCACUUUCUC, for which the “cell count fold change with erlotinib” value is -2.75.

CAUCUUACCGGACAGUGCUGGA: the “cell count fold change with erlotinib” value is -0.519.

As to GGGGAGCUGUGGAAGCAGUA, the “cell count fold change with erlotinib” value was -2.06.

As for CAGUUAUCACAGUGCUGAUGCU, the “cell count fold change with erlotinib” value was -1.92.

For GGUUUGGUCCUAGCCUUUCUA, the “cell count fold change with erlotinib” value was 0.113.

As to UGGUUUACCGUCCCACAUACAU, the “cell count fold change with erlotinib” value came to 0.24.

For the sequence UAGAGUUACACCCUGGGAGUUA, the “cell count fold change with erlotinib” value is -3.48.

Turning to UCCCUGUUCGGGCGCCA, the “cell count fold change with erlotinib” value is -3.09.

Turning to AUGUAUGUGUGCAUGUGCAUG, the “cell count fold change with erlotinib” value came to 0.321.

Consider AGUUUUGCAGGUUUGCAUCCAGC, for which the “cell count fold change with erlotinib” value is -0.535.

Turning to UCCUGUACUGAGCUGCCCCGAG, the “cell count fold change with erlotinib” value was -0.848.

With UGCCUGUCUACACUUGCUGUGC, the “cell count fold change with erlotinib” value is -1.78.

Turning to CAAGCUCGUGUCUGUGGGUCCG, the “cell count fold change with erlotinib” value is -1.13.

On to AGCCUGGAAGCUGGAGCCUGCAGU, for which the “cell count fold change with erlotinib” value was -0.167.

As to GAAGUGCUUCGAUUUUGGGGUGU, the “cell count fold change with erlotinib” value is -0.122.

For CUGCAAAGGGAAGCCCUUUC, the “cell count fold change with erlotinib” value is -3.43.

On to GUGAAUUACCGAAGGGCCAUAA, for which the “cell count fold change with erlotinib” value is -2.07.

As to UGAGCCCCUGUGCCGCCCCCAG, the “cell count fold change with erlotinib” value was -1.44.

Turning to UAAGUGCUUCCAUGCUU, the “cell count fold change with erlotinib” value is -0.506.

Consider UGGAAGACUAGUGAUUUUGUUGU, for which the “cell count fold change with erlotinib” value is -2.71.

Take CGGGUCGGAGUUAGCUCAAGCGG: the “cell count fold change with erlotinib” value is -0.802.

In the case of AAGAUGUGGAAAAAUUGGAAUC, the “cell count fold change with erlotinib” value is -0.304.

Take UUCAACGGGUAUUUAUUGAGCA: the “cell count fold change with erlotinib” value is -3.32.

Regarding UCACAAUGCUGACACUCAAACUGCUGAC, the “cell count fold change with erlotinib” value was -1.47.

Take ACGGAUGUUUGAGCAUGUGCUA: the “cell count fold change with erlotinib” value was -2.45.

For GAUGAGCUCAUUGUAAUAUGAG, the “cell count fold change with erlotinib” value is -2.97.

With ACGGGUUAGGCUCUUGGGAGCU, the “cell count fold change with erlotinib” value was -2.04.

In the case of AAGCAGCUGCCUCUGAGGC, the “cell count fold change with erlotinib” value worked out at 0.0583.

For the sequence UAGUACCAGUACCUUGUGUUCA, the “cell count fold change with erlotinib” value is -4.15.

Take UCGAGGAGCUCACAGUCUAGU: the “cell count fold change with erlotinib” value is -0.737.

On to AGGCAGUGUAGUUAGCUGAUUGC, for which the “cell count fold change with erlotinib” value worked out at 1.35.

For the sequence GUGAGUCUCUAAGAAAAGAGGA, the “cell count fold change with erlotinib” value was -1.43.

UAAGGUGCAUCUAGUGCAGUUAG: the “cell count fold change with erlotinib” value is -4.47.

As for UAGGACACAUGGUCUACUUCU, the “cell count fold change with erlotinib” value was -1.02.

On to UAGCAGCGGGAACAGUUCUGCAG, for which the “cell count fold change with erlotinib” value is -3.68.

Consider AGGUUACCCGAGCAACUUUGCAU, for which the “cell count fold change with erlotinib” value was -0.13.

For CCUCUGGGCCCUUCCUCCAG, the “cell count fold change with erlotinib” value came to 0.0835.

Take UAAGGCACGCGGUGAAUGCC: the “cell count fold change with erlotinib” value amounted to 0.453.

Consider CAACGGAAUCCCAAAAGCAGCUG, for which the “cell count fold change with erlotinib” value is -1.27.

As to GGGCGACAAAGCAAGACUCUUUCUU, the “cell count fold change with erlotinib” value is -2.38.

As to AAAGUGCUUCCUUUUAGAGGGU, the “cell count fold change with erlotinib” value is 0.14.

For the sequence CAGUGCAAUGAUAUUGUCAAAGC, the “cell count fold change with erlotinib” value was -2.68.

Consider AUUCUGCAUUUUUAGCAAGUUC, for which the “cell count fold change with erlotinib” value is -0.25.

On to AUCAUGAUGGGCUCCUCGGUGU, for which the “cell count fold change with erlotinib” value was -3.05.

On to CUCUUGAGGGAAGCACUUUCUGU, for which the “cell count fold change with erlotinib” value is -1.33.

AAAGACAUAGGAUAGAGUCACCUC: the “cell count fold change with erlotinib” value is -0.142.

On to ACUUGUAUGCUAGCUCAGGUAG, for which the “cell count fold change with erlotinib” value is -0.236.

As for UGGUUGUAGUCCGUGCGAGAAUA, the “cell count fold change with erlotinib” value worked out at 1.81.

AGUGCCUGAGGGAGUAAGAGCCC: the “cell count fold change with erlotinib” value is -2.56.

For the sequence AGGGUGUUUCUCUCAUCUCU, the “cell count fold change with erlotinib” value was -1.29.

Regarding AGACCUGGCCCAGACCUCAGC, the “cell count fold change with erlotinib” value stood at 0.672.
